Test results taken from patent publication US6358293B1, “Methods for rendering high concentrations of manganese safe for plant growth and formulations for same” (The Hampshire Chemical Corporation, priority 1999, dated 2002).

Legend:
plants = details: conventional conditions of plant culture, especially under acidic conditions; cited from earlier work
Geranium [1] = assay: Growth promotion versus conventionally cultured and single-additive controls; type: in vivo
Geranium [2] = assay: Effective root application doses; type: in vivo; details: 10 ml per plant
Protocol: (§1) The following are exemplary ranges of effective root application doses based on 10 ml per plant.

Cabbage = assay: Effective root application doses; type: in vivo; details: 10 ml per plant
Protocol: as §1

Coleus [3] = assay: Effective root application doses; type: in vivo; details: 10 ml per plant
Protocol: as §1

Coleus [4] = assay: Growth promotion versus conventionally cultured and single-additive controls; type: in vivo
New Guinea Impatiens [5] = assay: Effective foliar application doses; type: in vivo; details: 1 to 4 ml per plant
Protocol: (§2) The following are exemplary ranges of effective foliar application doses based on 1 to 4 ml per plant.

Corn = assay: Effective foliar application doses; type: in vivo; details: 1 to 4 ml per plant
Protocol: as §2

New Guinea Impatiens [6] = assay: Growth promotion versus conventionally cultured and single-additive controls; type: in vivo

Row | Compound | concentration at which manganese is phytotoxic to plants (plants) | effect of additive on plant growth (Geranium [1]) | effective root application dose, Mn (Geranium [2]; Mn applied with MeG) [ppm] | effective root application dose, Mn (Cabbage; Mn applied with MeG) [ppm] | effective root application dose, Mn (Coleus [3]; Mn applied with MeG) [ppm] | effect of additive on plant growth (Coleus [4]) | effective foliar application dose, Mn (New Guinea Impatiens [5]; Mn applied with MeG) [ppm] | effective foliar application dose, Mn (Corn; Mn applied with MeG) [ppm] | effect of additive on plant growth (New Guinea Impatiens [6]) | effective root application dose, MeG (Geranium [2]; MeG applied with Mn) [mM] | effective root application dose, MeG (Cabbage; MeG applied with Mn) [mM] | effective root application dose, MeG (Coleus [3]; MeG applied with Mn) [mM] | effective foliar application dose, MeG (New Guinea Impatiens [5]; MeG applied with Mn) [mM] | effective foliar application dose, MeG (Corn; MeG applied with Mn) [mM]
1 | [Mn+2] [Mn, manganese] | greater than 500 ppb | phytotoxic | 2 to 15 | 2 to 15 | 2 to 7 | phytotoxic | 10 to 25 | 10 to 25 | phytotoxic | – | – | – | – | –
2 | CO[C@H]1OC(CO)[C@H](O)[C@@H](O)[C@@H]1O (some centres unmarked) [MeG, methyl glucoside] | – | retarded growth | – | – | – | retarded growth | – | – | retarded growth | 10 to 100 | 10 to 30 | 5 to 50 | 200 to 500 | 5 to 25
